The source of these data is ChEMBL document CHEMBL5108072, “Discovery of Chlorofluoroacetamide-Based Covalent Inhibitors for Severe Acute Respiratory Syndrome Coronavirus 2 3CL Protease” (J Med Chem, 2022).

Calls of active or inactive are those of the source. The rule behind the calls is not given here.

For data set [1], the system named is SARS-CoV-2. Kind of data set: microbe, parasite or virus in culture. The note with it: Severe acute respiratory syndrome coronavirus 2, HEK-293T.
The test system of data set [2] is SARS-CoV-2. The data set is described as follows: microbe, parasite or virus in culture. The note with it: Severe acute respiratory syndrome coronavirus 2, Vero C1008.
Data set [3] deals with SARS-CoV-2. The data set is described as follows: microbe, parasite or virus in culture. To be noted: Severe acute respiratory syndrome coronavirus 2, Vero C1008. This is another data set of the same source.
Data set [4] deals with SARS-CoV-2. Kind of data set: microbe, parasite or virus in culture. To be noted: Severe acute respiratory syndrome coronavirus 2, alpha QK002, HEK-293T.
Data set [5] relates to SARS-CoV-2. Kind of data set: microbe, parasite or virus in culture. To be noted: Severe acute respiratory syndrome coronavirus 2, delta TY11-927, HEK-293T.
The subject of the next data set is SARS-CoV. Kind of data set: microbe, parasite or virus in culture. The note with it: Severe acute respiratory syndrome-related coronavirus, HEK-293T.
The test system of data set [6] is Middle East respiratory syndrome-related coronavirus. The data set is described as follows: microbe, parasite or virus in culture. To be noted: EMC2012, HEK-293T.
The nature of the next data set: cells. The note with it: Betacoronavirus 1, HEK-293T.
For data set [7], the target named is Replicase polyprotein 1ab (Severe acute respiratory syndrome coronavirus 2) (UniProt P0DTD1). The data set is described as follows: Binding affinity to SARS-CoV-2 3CLpro spiked in human A-431 cells assessed as increase in fluorescence intensity at 0.1 uM incubated for 1 hr by gel electrophoresis based fluorescence analysis. It is filed as cell-based.
In data set [8] the target is Replicase polyprotein 1ab (Severe acute respiratory syndrome coronavirus 2, UniProt P0DTD1). The data set is described as follows: Inhibition of recombinant full length SARS-CoV-2 3CLpro expressed in Escherichia coli using Ac-Abu-Tle-Leu-Gln-MCA as fluorogenic substrate preincubated for 30 mins followed by substrate addition and measured for 6 hrs by multimode plate reader analysis.

A short description of data set [9]: Toxicity in fasted ICR/c mouse assessed as debilitation at 100 mg/kg, po. It is filed as organism-based. To be noted: in vivo.
Data set [10] is described as follows: Toxicity in fasted ICR/c mouse assessed as hypotension at 100 mg/kg, po. It is filed as organism-based. To be noted: in vivo.
A further data set addresses Procathepsin L (Homo sapiens, UniProt P07711). Kind of data set: Inhibition of C-terminal His-tagged recombinant Human cathepsin L (18 to 333 residues) expressed in FreeStyle 293-F cells using Z-Leu-Arg-MCA peptide as fluorogenic substrate preincubated for 30 mins followed by substrate addition and measured after 1 hr by multimode plate reader analysis. It is filed as cell-based.

Data set [11] can be described thus: Bioavailability in fasted ICR/c mouse at 100 mg/kg, po or 10 mg/kg, iv by LC-MS/MS analysis. To be noted: in vivo. It is filed as ADME, organism-based.
Data set [12] can be described thus: Drug concentration in fasted ICR/c mouse lungs at 10 mg/kg, iv measured after 6 hrs by LC-MS/MS analysis. It is filed as ADME, organism-based, Lung. To be noted: in vivo.
A short description of data set [13]: Plasma protein binding in mouse assessed as unbound fraction at 1 uM incubated for 16 to 20 hrs by LC-MS/MS analysis. To be noted: time 16-20 hrs. It is filed as ADME, cell-free.
The target of another data set is Cathepsin B (Homo sapiens, UniProt P07858). The data set is described as follows: Inhibition of C-terminal His-tagged Human cathepsin B expressed in FreeStyle 293-F cells using Z-Leu-Arg-MCA peptide as fluorogenic substrate preincubated for 30 mins followed by substrate addition and measured after 1 hr by multimode plate reader analysis. It is filed as cell-based.

Data set [14] in a line: Drug concentration in fasted ICR/c mouse lungs at 100 mg/kg, po measured after 6 hrs by LC-MS/MS analysis. It is filed as ADME, organism-based, Lung. The note with it: in vivo.
Data set [15] deals with Replicase polyprotein 1ab (Severe acute respiratory syndrome coronavirus 2) (UniProt P0DTD1). Kind of data set: Irreversible inhibition of recombinant full length SARS-CoV-2 3CLpro expressed in Escherichia coli using Ac-Abu-Tle-Leu-Gln-MCA as fluorogenic substrate assessed as inhibition of substrate hydrolysis at upto 500 nM incubated for 60 mins by multimode plate reader analysis. To be noted: TDE = time-dependent effect.

A short description of data set [16]: GSH reactivity in potassium phosphate buffer at pH 7.4 assessed as half life at 1 mM. It is filed as physicochemical. To be noted: potassium phosphate buffer with GSH.
A further data set addresses Cathepsin S (Homo sapiens, UniProt P25774). The data set is described as follows: Inhibition of C-terminal His-tagged recombinant Human cathepsin S (17 to 331 residues) expressed in FreeStyle 293-F cells using Z-Leu-Arg-MCA peptide as fluorogenic substrate preincubated for 30 mins followed by substrate addition and measured after 1 hr by multimode plate reader analysis. It is filed as cell-based.

Sequence of Procathepsin L (P07711 whole entry, the tested form may be a part): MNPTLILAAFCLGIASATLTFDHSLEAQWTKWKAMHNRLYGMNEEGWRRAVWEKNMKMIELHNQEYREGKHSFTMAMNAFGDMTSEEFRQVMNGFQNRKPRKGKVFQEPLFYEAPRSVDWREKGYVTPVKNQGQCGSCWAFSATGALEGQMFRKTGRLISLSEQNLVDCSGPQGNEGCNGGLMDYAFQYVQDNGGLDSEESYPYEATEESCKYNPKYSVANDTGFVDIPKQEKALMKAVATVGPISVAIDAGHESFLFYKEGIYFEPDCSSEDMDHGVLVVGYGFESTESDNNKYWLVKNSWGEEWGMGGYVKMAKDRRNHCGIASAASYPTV
Sequence of Cathepsin S (P25774 whole entry, the tested form may be a part): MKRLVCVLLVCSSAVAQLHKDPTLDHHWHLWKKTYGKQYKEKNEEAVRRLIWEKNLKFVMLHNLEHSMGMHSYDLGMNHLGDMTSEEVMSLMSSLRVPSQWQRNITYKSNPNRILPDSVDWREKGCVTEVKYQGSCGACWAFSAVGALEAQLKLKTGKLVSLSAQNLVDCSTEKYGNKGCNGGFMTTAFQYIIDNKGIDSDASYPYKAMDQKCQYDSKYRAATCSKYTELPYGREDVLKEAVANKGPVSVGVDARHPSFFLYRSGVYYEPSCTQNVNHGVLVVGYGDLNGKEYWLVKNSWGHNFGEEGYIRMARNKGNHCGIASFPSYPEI

On to `CC(C)C[C@H](NC(=O)c1cc2c(F)cccc2[nH]1)C(=O)NN(C[C@H]1CCNC1=O)C(=O)[C@H](F)Cl`, for which the EC50 (in general, the concentration needed to bring the measured effect to its halfway point) with SARS-CoV-2 [1] was 141 nM; in the data set on SARS-CoV-2 [2], 423 nM; with SARS-CoV-2 [3], over 50000 nM; in the data set with SARS-CoV-2 [4], 92.3 nM; in the data set on SARS-CoV-2 [5], 44.5 nM.
Take `O=c1nc(NO)ccn1[C@@H]1O[C@H](CO)[C@@H](O)[C@H]1O` [N-HYDROXYCYTIDINE]: the EC50 was determined as 446 nM in the data set with SARS-CoV-2 [1]; 238 nM in the data set on SARS-CoV-2 [2]; 1560 nM with SARS-CoV; 204 nM in the data set with SARS-CoV-2 [3]; 1320 nM in data set [6]; 1190 nM in the data set “cells”. The EC50 turned out to be 1220 nM in the data set on SARS-CoV-2 [4] and 351 nM in the data set with SARS-CoV-2 [5].
With `COc1cccc2[nH]c(C(=O)N[C@@H](CC(C)C)C(=O)N[C@@H](C[C@@H]3CCNC3=O)C(=O)CO)cc12` [PF-00835231], the EC50 with SARS-CoV-2 [1] was 915 nM; in the data set with SARS-CoV-2 [2], 509 nM; in the data set with SARS-CoV it was 3240 nM; in the data set with SARS-CoV-2 [3], over 50000 nM; in data set [6] it was 700 nM; in “cells”, 929 nM. Also, the EC50 in the data set on SARS-CoV-2 [4] was found to be 1600 nM; in the data set with SARS-CoV-2 [5], 692 nM.
For `C#CCOc1cccc2[nH]c(C(=O)N[C@@H](CC(C)C)C(=O)NN(C[C@@H]3CCNC3=O)C(=O)[C@H](F)Cl)cc12`, the result in data set [7] was Active.
`CC(=O)N(C[C@@H]1CCNC1=O)NC(=O)[C@H](CC(C)C)NC(=O)c1cc2c(F)cccc2[nH]1`: the concentration for half-maximal inhibition (IC50) (commonly the concentration that gives 50% inhibition) in data set [8] came to 332 nM.
As to `COc1cccc2[nH]c(C(=O)N[C@@H](CC(C)C)C(=O)NN(C[C@@H]3CCNC3=O)C(=O)[C@H](F)Cl)cc12`, the EC50 stood at 24.4 nM in the data set on SARS-CoV-2 [1]; 69.7 nM in the data set on SARS-CoV-2 [2]; 64.4 nM in the data set on SARS-CoV; 20800 nM in the data set on SARS-CoV-2 [3]; 5.01 nM in data set [6]; 3.18 nM in the data set “cells”. Moreover, the EC50 in the data set on SARS-CoV-2 [4] was determined as 16.2 nM; in the data set with SARS-CoV-2 [5], 8.79 nM. In addition, the Activity result in [9] and in data set [10] was “Toxic” each time. For the same molecule, the IC50 in [8] is 9.5 nM.
Turning to `COc1cccc2[nH]c(C(=O)N[C@@H](CC(C)C)C(=O)NN(C[C@H]3CCNC3=O)C(=O)[C@H](F)Cl)cc12`, the EC50 in the data set on SARS-CoV-2 [1] is 119 nM; with SARS-CoV-2 [2], 389 nM; with SARS-CoV-2 [3] it was over 50000 nM; in the data set with SARS-CoV-2 [4], 103 nM; in the data set on SARS-CoV-2 [5], 50 nM.
Take `CC(C)C[C@H](NC(=O)c1cc2c(F)cccc2[nH]1)C(=O)NN(C[C@@H]1CCNC1=O)C(=O)[C@H](F)Cl`: the EC50 is 59 nM in the data set with SARS-CoV-2 [2]; 59.3 nM in the data set with SARS-CoV; 4.72 nM in [6]; 1.67 nM in the data set “cells”; 13.8 nM with SARS-CoV-2 [4]; 737 nM in the data set with SARS-CoV-2 [5]. Also, the IC50 on Procathepsin L, against Cathepsin B and at Cathepsin S was over 50000 nM throughout. Moreover, the bioavailability (usually dose-corrected exposure relative to a reference, in per cent) in [11] was 9%. For the same molecule, the Ct in data set [12] is 63 nmol/mg; in [14], 78 nmol/mg. For the same molecule, the Fu in data set [13] was determined as 0.15%. The inhibition result in data set [15] was “Tde”. For the same molecule, the half-life (in general, how long it takes for the measured level to halve) at 1000 µM in data set [16] is 48.2 h.
Turning to `CC(C)C[C@H](NC(=O)c1cc2c(F)cccc2[nH]1)C(=O)NN(C[C@@H]1CCNC1=O)C(=O)[C@@H](F)Cl`, the values for the half-maximal effective concentration (EC50) in the data set with SARS-CoV-2 [1], with SARS-CoV-2 [4] and with SARS-CoV-2 [5] were 198 nM, 69 nM and 48.7 nM, respectively. Further, the inhibition entry in [15] was “Tde”.
